Data from the NIST ThermoML archive (doi:10.1021/je8003723).
± gives the expanded uncertainty stated by the source.

Experiments:
[1] = 308.15 K, 101.3 kPa, Liquid; for viscosity: Capillary tube (Ostwald / Ubbelohde) method; for mass density: Pycnometric method; for speed of sound: Sing-around technique in a fixed-path interferometer
[2] = xn = mol fraction of the nth substance listed; settings: 308.15 K, 101 kPa, Liquid; for viscosity: Capillary tube (Ostwald / Ubbelohde) method; for mass density: Pycnometric method; for speed of sound: Sing-around technique in a fixed-path interferometer

SMILES: CCC(=O)CC [pentan-3-one]
- viscosity [1]: 0.371 ± 0.011 mPa·s
- mass density [1]: 800 ± 0.7 kg/m3
- speed of sound [1]: 1185 ± 7 m/s

SMILES: N#CCc1ccccc1 [benzeneacetonitrile] + CCC(C)=O
- viscosity ([2]; x1 = 0.0205): 0.334 ± 0.01 mPa·s
- viscosity ([2]; x1 = 0.1218): 0.412 ± 0.011 mPa·s
- viscosity ([2]; x1 = 0.2283): 0.497 ± 0.011 mPa·s
- viscosity ([2]; x1 = 0.3188): 0.583 ± 0.011 mPa·s
- viscosity ([2]; x1 = 0.4403): 0.72 ± 0.012 mPa·s
- viscosity ([2]; x1 = 0.5655): 0.868 ± 0.013 mPa·s
- viscosity ([2]; x1 = 0.6706): 1.015 ± 0.014 mPa·s
- viscosity ([2]; x1 = 0.8086): 1.228 ± 0.016 mPa·s
- viscosity ([2]; x1 = 0.9657): 1.498 ± 0.02 mPa·s
- viscosity ([2]; x1 = 1): 1.585 ± 0.021 mPa·s
- mass density ([2]; x1 = 0.0205): 796.1 ± 0.3 kg/m3
- mass density ([2]; x1 = 0.1218): 825.9 ± 0.4 kg/m3
- mass density ([2]; x1 = 0.2283): 854 ± 0.4 kg/m3
- mass density ([2]; x1 = 0.3188): 876.8 ± 0.5 kg/m3
- mass density ([2]; x1 = 0.4403): 905.5 ± 0.6 kg/m3
- mass density ([2]; x1 = 0.5655): 931.3 ± 0.7 kg/m3
- mass density ([2]; x1 = 0.6706): 950.7 ± 0.8 kg/m3
- mass density ([2]; x1 = 0.8086): 974.1 ± 0.9 kg/m3
- mass density ([2]; x1 = 0.9657): 998.1 ± 1 kg/m3
- mass density ([2]; x1 = 1): 1003.2 ± 1.1 kg/m3
- speed of sound ([2]; x1 = 0.0205): 1167 ± 7 m/s
- speed of sound ([2]; x1 = 0.1218): 1208 ± 7 m/s
- speed of sound ([2]; x1 = 0.2283): 1265 ± 8 m/s
- speed of sound ([2]; x1 = 0.3188): 1308 ± 8 m/s
- speed of sound ([2]; x1 = 0.4403): 1356 ± 8 m/s
- speed of sound ([2]; x1 = 0.5655): 1397 ± 9 m/s
- speed of sound ([2]; x1 = 0.6706): 1421 ± 9 m/s
- speed of sound ([2]; x1 = 0.8086): 1454 ± 9 m/s
- speed of sound ([2]; x1 = 0.9657): 1497 ± 9 m/s
- speed of sound ([2]; x1 = 1): 1518 ± 9 m/s

SMILES: N#CCc1ccccc1 [benzeneacetonitrile] + CCCC(C)=O
- viscosity ([2]; x1 = 0.0221): 0.41 ± 0.011 mPa·s
- viscosity ([2]; x1 = 0.1416): 0.495 ± 0.011 mPa·s
- viscosity ([2]; x1 = 0.2622): 0.6 ± 0.011 mPa·s
- viscosity ([2]; x1 = 0.3564): 0.685 ± 0.012 mPa·s
- viscosity ([2]; x1 = 0.4811): 0.819 ± 0.013 mPa·s
- viscosity ([2]; x1 = 0.6125): 0.976 ± 0.014 mPa·s
- viscosity ([2]; x1 = 0.7133): 1.1 ± 0.015 mPa·s
- viscosity ([2]; x1 = 0.8389): 1.29 ± 0.017 mPa·s
- viscosity ([2]; x1 = 0.9736): 1.509 ± 0.02 mPa·s
- viscosity ([2]; x1 = 1): 1.585 ± 0.021 mPa·s
- mass density ([2]; x1 = 0.0221): 797 ± 0.3 kg/m3
- mass density ([2]; x1 = 0.1416): 826.8 ± 0.4 kg/m3
- mass density ([2]; x1 = 0.2622): 856 ± 0.5 kg/m3
- mass density ([2]; x1 = 0.3564): 877.5 ± 0.5 kg/m3
- mass density ([2]; x1 = 0.4811): 904.2 ± 0.6 kg/m3
- mass density ([2]; x1 = 0.6125): 931.5 ± 0.7 kg/m3
- mass density ([2]; x1 = 0.7133): 950.9 ± 0.8 kg/m3
- mass density ([2]; x1 = 0.8389): 974.8 ± 0.9 kg/m3
- mass density ([2]; x1 = 0.9736): 998.6 ± 1.1 kg/m3
- mass density ([2]; x1 = 1): 1003.2 ± 1.1 kg/m3
- speed of sound ([2]; x1 = 0.0221): 1189 ± 7 m/s
- speed of sound ([2]; x1 = 0.1416): 1228 ± 7 m/s
- speed of sound ([2]; x1 = 0.2622): 1271 ± 8 m/s
- speed of sound ([2]; x1 = 0.3564): 1313 ± 8 m/s
- speed of sound ([2]; x1 = 0.4811): 1363 ± 8 m/s
- speed of sound ([2]; x1 = 0.6125): 1394 ± 9 m/s
- speed of sound ([2]; x1 = 0.7133): 1418 ± 9 m/s
- speed of sound ([2]; x1 = 0.8389): 1456 ± 9 m/s
- speed of sound ([2]; x1 = 0.9736): 1499 ± 9 m/s
- speed of sound ([2]; x1 = 1): 1518 ± 9 m/s

SMILES: N#CCc1ccccc1 [benzeneacetonitrile] + CCC(=O)CC
- viscosity ([2]; x1 = 0.0235): 0.388 ± 0.011 mPa·s
- viscosity ([2]; x1 = 0.1407): 0.474 ± 0.011 mPa·s
- viscosity ([2]; x1 = 0.2569): 0.567 ± 0.012 mPa·s
- viscosity ([2]; x1 = 0.358): 0.665 ± 0.013 mPa·s
- viscosity ([2]; x1 = 0.4803): 0.79 ± 0.014 mPa·s
- viscosity ([2]; x1 = 0.6048): 0.936 ± 0.015 mPa·s
- viscosity ([2]; x1 = 0.6943): 1.064 ± 0.016 mPa·s
- viscosity ([2]; x1 = 0.8378): 1.281 ± 0.018 mPa·s
- viscosity ([2]; x1 = 0.9722): 1.528 ± 0.02 mPa·s
- viscosity ([2]; x1 = 1): 1.585 ± 0.021 mPa·s
- mass density ([2]; x1 = 0.0235): 806 ± 0.7 kg/m3
- mass density ([2]; x1 = 0.1407): 835.4 ± 0.8 kg/m3
- mass density ([2]; x1 = 0.2569): 861.5 ± 0.8 kg/m3
- mass density ([2]; x1 = 0.358): 883.3 ± 0.9 kg/m3
- mass density ([2]; x1 = 0.4803): 909 ± 0.9 kg/m3
- mass density ([2]; x1 = 0.6048): 933.7 ± 1 kg/m3
- mass density ([2]; x1 = 0.6943): 951.2 ± 1 kg/m3
- mass density ([2]; x1 = 0.8378): 976.7 ± 1 kg/m3
- mass density ([2]; x1 = 0.9722): 998.9 ± 1.1 kg/m3
- mass density ([2]; x1 = 1): 1003.2 ± 1.1 kg/m3
- speed of sound ([2]; x1 = 0.0235): 1199 ± 8 m/s
- speed of sound ([2]; x1 = 0.1407): 1237 ± 8 m/s
- speed of sound ([2]; x1 = 0.2569): 1278 ± 8 m/s
- speed of sound ([2]; x1 = 0.358): 1314 ± 8 m/s
- speed of sound ([2]; x1 = 0.4803): 1354 ± 8 m/s
- speed of sound ([2]; x1 = 0.6048): 1397 ± 9 m/s
- speed of sound ([2]; x1 = 0.6943): 1421 ± 9 m/s
- speed of sound ([2]; x1 = 0.8378): 1471 ± 9 m/s
- speed of sound ([2]; x1 = 0.9722): 1496 ± 9 m/s
- speed of sound ([2]; x1 = 1): 1518 ± 9 m/s

SMILES: CC(=O)CC(C)C [4-methylpentan-2-one]
- viscosity [1]: 0.455 ± 0.011 mPa·s
- mass density [1]: 786.8 ± 0.3 kg/m3
- speed of sound [1]: 1150 ± 7 m/s

SMILES: CC(=O)CC(C)C [4-methylpentan-2-one] + N#CCc1ccccc1
- viscosity ([2]; x2 = 0): 0.455 ± 0.011 mPa·s
- mass density ([2]; x2 = 0): 786.8 ± 0.3 kg/m3
- speed of sound ([2]; x2 = 0): 1150 ± 7 m/s

SMILES: CCCC(C)=O [pentan-2-one]
- viscosity [1]: 0.394 ± 0.011 mPa·s
- mass density [1]: 790.8 ± 0.3 kg/m3
- speed of sound [1]: 1179 ± 7 m/s

SMILES: CCC(=O)CC [pentan-3-one] + N#CCc1ccccc1
- viscosity ([2]; x2 = 0): 0.371 ± 0.011 mPa·s
- mass density ([2]; x2 = 0): 800 ± 0.7 kg/m3
- speed of sound ([2]; x2 = 0): 1185 ± 7 m/s

SMILES: CCC(C)=O [butanone]
- viscosity [1]: 0.316 ± 0.01 mPa·s
- mass density [1]: 789.2 ± 0.3 kg/m3
- speed of sound [1]: 1157 ± 7 m/s

SMILES: CCCC(C)=O [pentan-2-one] + N#CCc1ccccc1
- viscosity ([2]; x2 = 0): 0.394 ± 0.011 mPa·s
- mass density ([2]; x2 = 0): 790.8 ± 0.3 kg/m3
- speed of sound ([2]; x2 = 0): 1179 ± 7 m/s

SMILES: CCC(C)=O [butanone] + N#CCc1ccccc1
- viscosity ([2]; x2 = 0): 0.316 ± 0.01 mPa·s
- mass density ([2]; x2 = 0): 789.2 ± 0.3 kg/m3
- speed of sound ([2]; x2 = 0): 1157 ± 7 m/s

SMILES: N#CCc1ccccc1 [benzeneacetonitrile]
- viscosity [1]: 1.585 ± 0.021 mPa·s
- mass density [1]: 1003.2 ± 1.1 kg/m3
- speed of sound [1]: 1518 ± 9 m/s

SMILES: N#CCc1ccccc1 [benzeneacetonitrile] + CC(=O)CC(C)C
- viscosity ([2]; x1 = 0.0271): 0.475 ± 0.011 mPa·s
- viscosity ([2]; x1 = 0.16): 0.573 ± 0.011 mPa·s
- viscosity ([2]; x1 = 0.2926): 0.679 ± 0.012 mPa·s
- viscosity ([2]; x1 = 0.3931): 0.775 ± 0.012 mPa·s
- viscosity ([2]; x1 = 0.5217): 0.91 ± 0.013 mPa·s
- viscosity ([2]; x1 = 0.6436): 1.049 ± 0.014 mPa·s
- viscosity ([2]; x1 = 0.7407): 1.164 ± 0.016 mPa·s
- viscosity ([2]; x1 = 0.8599): 1.338 ± 0.018 mPa·s
- viscosity ([2]; x1 = 0.9758): 1.523 ± 0.02 mPa·s
- viscosity ([2]; x1 = 1): 1.585 ± 0.021 mPa·s
- mass density ([2]; x1 = 0.0271): 792.5 ± 0.3 kg/m3
- mass density ([2]; x1 = 0.16): 823.3 ± 0.4 kg/m3
- mass density ([2]; x1 = 0.2926): 852.2 ± 0.5 kg/m3
- mass density ([2]; x1 = 0.3931): 874.6 ± 0.5 kg/m3
- mass density ([2]; x1 = 0.5217): 902.8 ± 0.6 kg/m3
- mass density ([2]; x1 = 0.6436): 928.9 ± 0.7 kg/m3
- mass density ([2]; x1 = 0.7407): 949.8 ± 0.8 kg/m3
- mass density ([2]; x1 = 0.8599): 976 ± 0.9 kg/m3
- mass density ([2]; x1 = 0.9758): 998.1 ± 1.1 kg/m3
- mass density ([2]; x1 = 1): 1003.2 ± 1.1 kg/m3
- speed of sound ([2]; x1 = 0.0271): 1166 ± 7 m/s
- speed of sound ([2]; x1 = 0.16): 1212 ± 7 m/s
- speed of sound ([2]; x1 = 0.2926): 1261 ± 8 m/s
- speed of sound ([2]; x1 = 0.3931): 1298 ± 8 m/s
- speed of sound ([2]; x1 = 0.5217): 1340 ± 8 m/s
- speed of sound ([2]; x1 = 0.6436): 1382 ± 8 m/s
- speed of sound ([2]; x1 = 0.7407): 1414 ± 9 m/s
- speed of sound ([2]; x1 = 0.8599): 1459 ± 9 m/s
- speed of sound ([2]; x1 = 0.9758): 1498 ± 9 m/s
- speed of sound ([2]; x1 = 1): 1518 ± 9 m/s
